Assay: Particle size of micronized digoxin obtained by the non-mechanical process
Format: physicochemical
Details: for >90% of the particles (number distribution); digoxin precipitated per Example 1
Source text: The digoxin thus obtained has a high purity and is ready to be incorporated in the usual pharmaceutical formulations, typically tablets; it has particle size of 20-30 micrometers for at least 90% of the particles, and is exempt from degradation products, as evident by a wholly neutral colour, and further confirmable analytically. In the present invention, the particle size distribution is meant as “number distribution” (thus not “volume distribution” or “mass distribution”); accordingly, any expressions of the type “x-y micrometers for at least m % of the particles” describes a particle distribution characterized in that at least m % of the number of particles making up the product have a size comprised between x and y micrometers; relevant particle size values can be measured by usual techniques, including laser diffraction, dynamic light scattering, dynamic image analysis, suitably equipped with data processing systems. The obtained digoxin can be formulated with common excipients. Suitable excipients are cellulose products like microcrystalline cellulose, cellulose ethers like methylcellulose, ethylcellulose, hydroxyethylcellulose, crosslinked polymers (e.g. polyplasdone XL, hyaluronic acid or alginic acid cross-linked with urea), gums from plants, etc. Common diluents like mannitol, fructose, as well as compression aids like magnesium stearate, can also be used. […]

Structure (SMILES): C[C@H]1O[C@@H](O[C@H]2[C@@H](O)C[C@H](O[C@H]3[C@@H](O)C[C@H](O[C@H]4CC[C@@]5(C)[C@H](CC[C@@H]6[C@@H]5C[C@@H](O)[C@]5(C)[C@@H](C7=CC(=O)OC7)CC[C@]65O)C4)O[C@@H]3C)O[C@@H]2C)C[C@H](O)[C@@H]1O [digoxin]
- particle size: 20-30 micrometers
